Results reported in article doi:10.1101/577908v1, “Host metabolic reprogramming of Pseudomonas aeruginosa by phage-based quorum sensing modulation” (biorxiv, 2019).

How the values were obtained:
Qst = target: T1, Qst (Pseudomonas phage LUZ19, UniProt A9J759); assay: DTNB end-point assay of CoA release; 1H-NMR; type: biochemical; settings: 1 mM acetyl-CoA, 2 mM 3-methyl-2-oxobutanoic acid, MgCl2, pH 7.5, 37 °C
T1 construct: gene gp4; His-tagged (pEXP5-CT/TOPO), expressed in E. coli BL21(DE3), HisTrap purified; predicted 13 kDa
T1 sequence (A9J759 1-122): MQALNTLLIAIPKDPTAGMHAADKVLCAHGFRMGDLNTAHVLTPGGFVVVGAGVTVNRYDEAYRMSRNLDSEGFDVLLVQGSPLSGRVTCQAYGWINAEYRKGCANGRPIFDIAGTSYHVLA

PA1217 = target: T2, PA1217 (Pseudomonas aeruginosa, UniProt Q9I4C1); assay: DTNB end-point assay of CoA release; 1H-NMR; type: biochemical; settings: 1 mM acetyl-CoA, 2 mM 3-methyl-2-oxobutanoic acid, MgCl2, pH 7.5, 37 °C
T2 construct: full-length, GST-tagged (pGEX-6P-1), expressed in E. coli BL21(DE3), GSTrap purified; tag removal not mentioned
T2 sequence (Q9I4C1 1-455): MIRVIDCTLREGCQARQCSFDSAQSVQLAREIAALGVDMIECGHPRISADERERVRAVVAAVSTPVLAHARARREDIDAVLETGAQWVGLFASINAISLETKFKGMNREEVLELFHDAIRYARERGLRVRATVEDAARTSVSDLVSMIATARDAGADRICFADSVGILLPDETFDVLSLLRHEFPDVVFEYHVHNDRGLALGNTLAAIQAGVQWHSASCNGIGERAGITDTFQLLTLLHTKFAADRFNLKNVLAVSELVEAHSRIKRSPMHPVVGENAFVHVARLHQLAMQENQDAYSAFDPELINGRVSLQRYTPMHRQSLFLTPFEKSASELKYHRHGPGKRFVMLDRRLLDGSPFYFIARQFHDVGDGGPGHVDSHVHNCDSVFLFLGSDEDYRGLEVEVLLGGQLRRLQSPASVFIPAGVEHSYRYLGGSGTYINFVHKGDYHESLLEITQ

`CC(=O)SCCNC(=O)CCNC(=O)[C@H](O)C(C)(C)COP(=O)(O)OP(=O)(O)OC[C@H]1O[C@@H](n2cnc3c(N)ncnc32)[C@H](O)[C@@H]1OP(=O)(O)O` [acetyl-CoA] was tested. Which “DTNB end-point assay of CoA release; 1H-NMR” value (Qst) did it give?
Its value is “Qst was also able to consume acetyl-CoA”.

What about the “DTNB end-point assay of CoA release; 1H-NMR” value (PA1217) of the same molecule?
Its value is “products were only formed by LeuA, while PA1217 merely consumed acetyl-CoA”.
